Measured values reported in patent US11091496B2, “Opioid ketal compounds and uses thereof” (priority 2013, dated 2021).
Read-outs that look alike come from different tables or passages of the source. Marks after values point to notes of the source that are not given here.

Legend:
[1] = 5% acetic acid 100° C.; for % Oxycodone, % IVA-IVD in hydrolysis mixture: unreacted oxycodone + four isomers of Formula IV, 1 mg/ml
[2] = assay type: physicochemical; details: for extent of hydrolysis to hydrocodone in about 4 hours: FIG. 5, FIG. 6; for % hydrocodone, % Ketal in hydrolysis mixture: hydrocodone 1,3-propanediol ketal; for % hydrocodone, % Ketal in hydrolysis mixture / Hydrocodone, 2S,5S ketal in hydrolysis mixture / Hydrocodone, 2R,5R ketal in hydrolysis mixture: 1 mg/ml; for % Oxycodone, % IVA-IVD in hydrolysis mixture: total 1 mg/ml; for relative rate of hydrolysis: comparison of stereoisomers; for Hydrocodone, 2S,5S ketal in hydrolysis mixture: hydrocodone 2S,5S-hexanediol ketal tested separately; for Hydrocodone, 2R,5R ketal in hydrolysis mixture: hydrocodone 2R,5R-hexanediol ketal tested separately
[3] = Ketal hydrolysis at varying pH, buffers at 37° C.; details: 1 mg/ml; for hydrolysis of the ketal: 37° C.
[4] = mixture of isomers, 0.1 N HCl 37° C.

Compound: COc1ccc2c3c1O[C@H]1C4(CCC5(O)[C@@H](C2)N(C)CC[C@]315)OCCC(C)O4 (stereo partly shown) [Formula V, oxycodone 1,3-butanediol ketal]
- time to almost completely hydrolyze to oxycodone ([1]; FIG. 12, FIG. 13): at least 4 hours
- time to about 60% hydrolysis ([1]; FIG. 13): about 1 hour
- time at which about 50% of the oxycodone is released [2, 4]: about 5 hours
- time by which about (almost) 90% oxycodone release occurs [2, 4]: ≤ 25 h

Compound: COc1ccc2c3c1O[C@H]1C4(CCC5[C@@H](C2)N(C)CC[C@@]351)OCCCO4 (stereo partly shown) [Hydrocodone 1,3-propanediol ketal]
- extent of hydrolysis to hydrocodone in about 4 hours ([2]; 0.1 N HCl 37° C.): nearly complete hydrolysis
- % hydrocodone, % Ketal in hydrolysis mixture ([2]; 0.1 N HCl 37° C., 0 h): 93.1%
- % hydrocodone, % Ketal in hydrolysis mixture ([2]; 0.1 N HCl 37° C., 0.57 h): 65.7%
- % hydrocodone, % Ketal in hydrolysis mixture ([2]; 0.1 N HCl 37° C., 1.25 h): 52.3%
- % hydrocodone, % Ketal in hydrolysis mixture ([2]; 0.1 N HCl 37° C., 2 h): 41.8%
- % hydrocodone, % Ketal in hydrolysis mixture ([2]; 0.1 N HCl 37° C., 3 h): 32.8%
- % hydrocodone, % Ketal in hydrolysis mixture ([2]; 0.1 N HCl 37° C., 4 h): 25.6%

Compound: COc1ccc2c3c1O[C@H]1[C@]4(CCC5(O)[C@@H](C2)N(C)CC[C@]315)O[C@H](C)C[C@H](C)O4 (stereo partly drawn) [IVA, oxycodone 2R,4S-pentanediol ketal]
- % Oxycodone, % IVA-IVD in hydrolysis mixture ([1]; 0 h): 24%
- % Oxycodone, % IVA-IVD in hydrolysis mixture ([1]; 0.5 h): 21.1%
- % Oxycodone, % IVA-IVD in hydrolysis mixture ([1]; 1 h): 15.8%
- % Oxycodone, % IVA-IVD in hydrolysis mixture ([1]; 2 h): 6%
- % Oxycodone, % IVA-IVD in hydrolysis mixture ([1]; 4.35 h): 3.1%
- % Oxycodone, % IVA-IVD in hydrolysis mixture ([1]; 10 h): 0%
- % Oxycodone, % IVA-IVD in hydrolysis mixture ([2]; 0.1 N HCl 37° C., 0 h): 24.7%
- % Oxycodone, % IVA-IVD in hydrolysis mixture ([2]; 0.1 N HCl 37° C., 0.583 h): 25.9%
- % Oxycodone, % IVA-IVD in hydrolysis mixture ([2]; 0.1 N HCl 37° C., 1.167 h): 25.6%
- % Oxycodone, % IVA-IVD in hydrolysis mixture ([2]; 0.1 N HCl 37° C., 1.75 h): 25%
- % Oxycodone, % IVA-IVD in hydrolysis mixture ([2]; 0.1 N HCl 37° C., 2.33 h): 25.9%
- % Oxycodone, % IVA-IVD in hydrolysis mixture ([2]; 0.1 N HCl 37° C., 2.92 h): 24.8%
- % Oxycodone, % IVA-IVD in hydrolysis mixture ([2]; 0.1 N HCl 37° C., 4 h): 23.7%
- % Oxycodone, % IVA-IVD in hydrolysis mixture ([2]; 0.1 N HCl 37° C., 6.5 h): 19.8%
- % Oxycodone, % IVA-IVD in hydrolysis mixture ([2]; 0.1 N HCl 37° C., 9.75 h): 15.6%
- % Oxycodone, % IVA-IVD in hydrolysis mixture ([2]; 0.1 N HCl 37° C., 13.75 h): 9.9%
- % Oxycodone, % IVA-IVD in hydrolysis mixture ([2]; 0.1 N HCl 37° C., 25 h): 4.3%

Compound: COc1ccc2c3c1O[C@H]1[C@@]4(CCC5(O)[C@@H](C2)N(C)CC[C@]315)O[C@H](C)C[C@H](C)O4 (stereo partly drawn) [IVB, oxycodone 2S,4R-pentanediol ketal]
- % Oxycodone, % IVA-IVD in hydrolysis mixture ([1]; 0 h): 10.9%
- % Oxycodone, % IVA-IVD in hydrolysis mixture ([1]; 0.5 h): 8.7%
- % Oxycodone, % IVA-IVD in hydrolysis mixture ([1]; 1 h): 9.7%
- % Oxycodone, % IVA-IVD in hydrolysis mixture ([1]; 2 h): 9.2%
- % Oxycodone, % IVA-IVD in hydrolysis mixture ([1]; 4.35 h): 9%
- % Oxycodone, % IVA-IVD in hydrolysis mixture ([1]; 10 h): 4.8%
- % Oxycodone, % IVA-IVD in hydrolysis mixture ([2]; 0.1 N HCl 37° C., 0 h): 10.7%
- % Oxycodone, % IVA-IVD in hydrolysis mixture ([2]; 0.1 N HCl 37° C., 0.583 h): 10.6%
- % Oxycodone, % IVA-IVD in hydrolysis mixture ([2]; 0.1 N HCl 37° C., 1.167 h): 10.7%
- % Oxycodone, % IVA-IVD in hydrolysis mixture ([2]; 0.1 N HCl 37° C., 1.75 h): 7.8%
- % Oxycodone, % IVA-IVD in hydrolysis mixture ([2]; 0.1 N HCl 37° C., 2.33 h): 8.3%
- % Oxycodone, % IVA-IVD in hydrolysis mixture ([2]; 0.1 N HCl 37° C., 2.92 h): 8.7%
- % Oxycodone, % IVA-IVD in hydrolysis mixture ([2]; 0.1 N HCl 37° C., 4 h): 9.2%
- % Oxycodone, % IVA-IVD in hydrolysis mixture ([2]; 0.1 N HCl 37° C., 6.5 h): 10%
- % Oxycodone, % IVA-IVD in hydrolysis mixture ([2]; 0.1 N HCl 37° C., 9.75 h): 10.2%
- % Oxycodone, % IVA-IVD in hydrolysis mixture ([2]; 0.1 N HCl 37° C., 13.75 h): 10.4%
- % Oxycodone, % IVA-IVD in hydrolysis mixture ([2]; 0.1 N HCl 37° C., 25 h): 9.3%

Compound: Hydrocodone 2R,4R-pentanediol ketal
- hydrolysis of the ketal ([3]; pH 1, 0 h): 0
- hydrolysis of the ketal ([3]; pH 1, 0.33 h): 50
- hydrolysis of the ketal ([3]; pH 1, 1 h): 90
- hydrolysis of the ketal ([3]; pH 1, 2 h): 99.8
- hydrolysis of the ketal ([3]; pH 1, 4 h): 100
- hydrolysis of the ketal ([3]; pH 1.5, 0 h): 0
- hydrolysis of the ketal ([3]; pH 1.5, 0.33 h): 30.6
- hydrolysis of the ketal ([3]; pH 1.5, 1 h): 59.4
- hydrolysis of the ketal ([3]; pH 1.5, 2 h): 85.1
- hydrolysis of the ketal ([3]; pH 1.5, 4 h): 98.2
- hydrolysis of the ketal ([3]; pH 2, 0 h): 0
- hydrolysis of the ketal ([3]; pH 2, 0.33 h): 8.3
- hydrolysis of the ketal ([3]; pH 2, 1 h): 21.9
- hydrolysis of the ketal ([3]; pH 2, 2 h): 37.7
- hydrolysis of the ketal ([3]; pH 2, 4 h): 58.2
- hydrolysis of the ketal ([3]; pH 2.5, 0 h): 0
- hydrolysis of the ketal ([3]; pH 2.5, 0.33 h): 0
- hydrolysis of the ketal ([3]; pH 2.5, 1 h): 0
- hydrolysis of the ketal ([3]; pH 2.5, 2 h): 15.9
- hydrolysis of the ketal ([3]; pH 2.5, 4 h): 26.4
- hydrolysis of the ketal ([3]; pH 3, 0 h): 0
- hydrolysis of the ketal ([3]; pH 3, 0.33 h): 0
- hydrolysis of the ketal ([3]; pH 3, 1 h): 0
- hydrolysis of the ketal ([3]; pH 3, 2 h): 5.9
- hydrolysis of the ketal ([3]; pH 3, 4 h): 12.7
- hydrolysis of the ketal ([3]; pH 4, 4 h, estimated from longer hydrolysis times): 1.3*
- hydrolysis of the ketal ([3]; pH 5, 4 h, estimated from longer hydrolysis times): 0.15*
- hydrolysis of the ketal ([3]; pH 7, 4 h, estimated from longer hydrolysis times): 0.01*
- hydrolysis of the ketal ([3]; pH 12, 4 h, estimated from longer hydrolysis times): 0.01*
- pH at which hydrolysis of the ketal is fastest ([3]; pH buffers 37° C.): fastest at pH 1

Compound: Hydrocodone 2S,5S-hexanediol ketal [2S,5S ketal]
- relative rate of hydrolysis [2]: hydrolyzes relatively slowly
- Hydrocodone, 2S,5S ketal in hydrolysis mixture ([2]; 0.1 N HCl 37° C., 0 h): 81.98
- Hydrocodone, 2S,5S ketal in hydrolysis mixture ([2]; 0.1 N HCl 37° C., 0.5 h): 52.18
- Hydrocodone, 2S,5S ketal in hydrolysis mixture ([2]; 0.1 N HCl 37° C., 1.25 h): 35.11
- Hydrocodone, 2S,5S ketal in hydrolysis mixture ([2]; 0.1 N HCl 37° C., 2 h): 10.19
- Hydrocodone, 2S,5S ketal in hydrolysis mixture ([2]; 0.1 N HCl 37° C., 3 h): 4.29
- Hydrocodone, 2S,5S ketal in hydrolysis mixture ([2]; 0.1 N HCl 37° C., 4 h): 2

Compound: hydrocodone 2,5-hexanediol ketal
- extent of hydrolysis to hydrocodone in about 4 hours ([2]; 0.1 N HCl 37° C.): nearly complete hydrolysis

Compound: hydrocodone 2R,5R-hexanediol ketal [2R,5R ketal]
- relative rate of hydrolysis [2]: hydrolyzes relatively quickly
- Hydrocodone, 2R,5R ketal in hydrolysis mixture ([2]; 0.1 N HCl 37° C., 0 h): 73.88
- Hydrocodone, 2R,5R ketal in hydrolysis mixture ([2]; 0.1 N HCl 37° C., 0.5 h): 34.6
- Hydrocodone, 2R,5R ketal in hydrolysis mixture ([2]; 0.1 N HCl 37° C., 1.25 h): 11.37
- Hydrocodone, 2R,5R ketal in hydrolysis mixture ([2]; 0.1 N HCl 37° C., 2 h): 2.67
- Hydrocodone, 2R,5R ketal in hydrolysis mixture ([2]; 0.1 N HCl 37° C., 3 h): 0
- Hydrocodone, 2R,5R ketal in hydrolysis mixture ([2]; 0.1 N HCl 37° C., 4 h): 0

Compound: oxycodone cis 1,2-cyclohexanedimethanol ketals
- proportion of oxycodone in the mixture ([2]; 0.1 N HCl 37° C., within five hours, FIG. 4): increased from about 30% to about 55%
